Experimental data from patent US3948899A, “α-Cyanobenzylpiperazines and a process for producing the same” (Fuji Chemical Industry Co., Ltd., priority 1973, dated 1976).
Structures can show the parent of a compound that is named as a salt.

What was measured:
Format in all cases: in vivo, dog
mongrel adult dogs [1] = experiment: Effects on arterial mean blood pressure (thoractomized anesthetized dogs, i.v.)
Procedure: (§1) All experiments were conducted on male and female thoractomized mongrel adult dogs weighing about 10 Kg under anesthesia with pentobarbital sodium.
(§2) Arterial blood pressure was measured by pressure transducer (Nippon Koden MPU-0.5) connected with the cannula inserted from exposed carotid artery into aorta. Aortic blood flow was determined by means of electromagnetic flow meter (Nippon Koden MF-5) mounted at an origin of aorta. Coronary sinus out flow and coronary sinus oxygen tension were assessed by means of electromagnetic flow meter (Nippon Koden MF-5) and Po2 Macro electrode (Beckmann Moder 160-C), respectively, using Morawitz cannulization technique. Heart rate was measured by cardiotachometer (Nippon Koden RT-2) synchronized with systolic blood pressure of aorta.

mongrel adult dogs [2] = experiment: Effects on aortic blood flow (thoractomized anesthetized dogs, i.v.)
Procedure: as §1, §2

mongrel adult dogs [3] = experiment: Effects on coronary sinus out flow (thoractomized anesthetized dogs, i.v.)
Procedure: as §1, §2

mongrel adult dogs [4] = experiment: Effects on coronary sinus oxygen tension (thoractomized anesthetized dogs, i.v.); settings: i.v. 0.2 mg/Kg, 1 min
Procedure: as §1, §2

COc1ccc(CN2CCNCC2)c(OC)c1OC [Vastarel F, 2,3,4 -trimethoxybenzylpiperazine dihydrochloride]
+3.0%: Changes(%) of basal values, coronery sinus out flow (mongrel adult dogs [3]; i.v. 2.0 mg/Kg, 5 min)
-55.0%: Changes(%) of basal values, arterial mean blood pressure (mongrel adult dogs [1]; i.v. 2.0 mg/Kg, imm.)
-1.5%: Changes(%) of basal values, arterial mean blood pressure (mongrel adult dogs [1]; i.v. 0.2 mg/Kg, 10 min) | Changes(%) of basal values, arterial mean blood pressure (mongrel adult dogs [1]; i.v. 0.6 mg/Kg, 5 min) | Changes(%) of basal values, aortic blood flow (mongrel adult dogs [2]; i.v. 0.6 mg/Kg, 25 min)
-6.0%: Changes(%) of basal values, arterial mean blood pressure (mongrel adult dogs [1]; i.v. 0.6 mg/Kg, imm.)
-35.0%: Changes(%) of basal values, arterial mean blood pressure (mongrel adult dogs [1]; i.v. 2.0 mg/Kg, 1 min)
+6.0%: Changes(%) of basal values, aortic blood flow (mongrel adult dogs [2]; i.v. 2.0 mg/Kg, 25 min) | Changes(%) of basal values, coronery sinus out flow (mongrel adult dogs [3]; i.v. 0.6 mg/Kg, imm.)
+8.0%: Changes(%) of basal values, coronery sinus out flow (mongrel adult dogs [3]; i.v. 2.0 mg/Kg, 15 min)
-1.0%: Changes(%) of basal values, arterial mean blood pressure (mongrel adult dogs [1]; i.v. 0.2 mg/Kg, 1 min) | Changes(%) of basal values, arterial mean blood pressure (mongrel adult dogs [1]; i.v. 0.2 mg/Kg, 15 min) | Changes(%) of basal values, arterial mean blood pressure (mongrel adult dogs [1]; i.v. 0.6 mg/Kg, 10 min) | Changes(%) of basal values, arterial mean blood pressure (mongrel adult dogs [1]; i.v. 0.6 mg/Kg, 15 min) | Changes(%) of basal values, arterial mean blood pressure (mongrel adult dogs [1]; i.v. 2.0 mg/Kg, 10 min) | Changes(%) of basal values, arterial mean blood pressure (mongrel adult dogs [1]; i.v. 2.0 mg/Kg, 20 min) | Changes(%) of basal values, aortic blood flow (mongrel adult dogs [2]; i.v. 0.6 mg/Kg, 10 min) | Changes(%) of basal values, aortic blood flow (mongrel adult dogs [2]; i.v. 0.6 mg/Kg, 15 min) | Changes(%) of basal values, aortic blood flow (mongrel adult dogs [2]; i.v. 0.6 mg/Kg, 20 min)
-3.0%: Changes(%) of basal values, arterial mean blood pressure (mongrel adult dogs [1]; i.v. 0.2 mg/Kg, imm.) | Changes(%) of basal values, coronery sinus out flow (mongrel adult dogs [3]; i.v. 2.0 mg/Kg, 1 min)
+0.5%: Changes(%) of basal values, aortic blood flow (mongrel adult dogs [2]; i.v. 0.6 mg/Kg, 1 min)
0%: Changes(%) of basal values, arterial mean blood pressure (mongrel adult dogs [1]; i.v. 0.2 mg/Kg, 20 min) | Changes(%) of basal values, arterial mean blood pressure (mongrel adult dogs [1]; i.v. 0.2 mg/Kg, 25 min) | Changes(%) of basal values, arterial mean blood pressure (mongrel adult dogs [1]; i.v. 0.2 mg/Kg, 30 min) | Changes(%) of basal values, arterial mean blood pressure (mongrel adult dogs [1]; i.v. 0.6 mg/Kg, 20 min) | Changes(%) of basal values, arterial mean blood pressure (mongrel adult dogs [1]; i.v. 0.6 mg/Kg, 25 min) | Changes(%) of basal values, arterial mean blood pressure (mongrel adult dogs [1]; i.v. 0.6 mg/Kg, 30 min) | Changes(%) of basal values, arterial mean blood pressure (mongrel adult dogs [1]; i.v. 2.0 mg/Kg, 15 min) | Changes(%) of basal values, aortic blood flow (mongrel adult dogs [2]; i.v. 0.2 mg/Kg, 1 min) | Changes(%) of basal values, aortic blood flow (mongrel adult dogs [2]; i.v. 0.2 mg/Kg, 5 min) | Changes(%) of basal values, aortic blood flow (mongrel adult dogs [2]; i.v. 0.2 mg/Kg, 10 min) | Changes(%) of basal values, aortic blood flow (mongrel adult dogs [2]; i.v. 0.2 mg/Kg, 15 min) | Changes(%) of basal values, aortic blood flow (mongrel adult dogs [2]; i.v. 0.2 mg/Kg, 20 min) | Changes(%) of basal values, aortic blood flow (mongrel adult dogs [2]; i.v. 0.2 mg/Kg, 25 min) | Changes(%) of basal values, aortic blood flow (mongrel adult dogs [2]; i.v. 0.2 mg/Kg, 30 min) | Changes(%) of basal values, aortic blood flow (mongrel adult dogs [2]; i.v. 0.2 mg/Kg, imm.) | Changes(%) of basal values, aortic blood flow (mongrel adult dogs [2]; i.v. 0.6 mg/Kg, 5 min) | Changes(%) of basal values, aortic blood flow (mongrel adult dogs [2]; i.v. 0.6 mg/Kg, 30 min) | Changes(%) of basal values, aortic blood flow (mongrel adult dogs [2]; i.v. 2.0 mg/Kg, 1 min) | Changes(%) of basal values, coronery sinus out flow (mongrel adult dogs [3]; i.v. 0.2 mg/Kg, 5 min) | Changes(%) of basal values, coronery sinus out flow (mongrel adult dogs [3]; i.v. 0.2 mg/Kg, 10 min) | Changes(%) of basal values, coronery sinus out flow (mongrel adult dogs [3]; i.v. 0.2 mg/Kg, 15 min) | Changes(%) of basal values, coronery sinus out flow (mongrel adult dogs [3]; i.v. 0.2 mg/Kg, 20 min) | Changes(%) of basal values, coronery sinus out flow (mongrel adult dogs [3]; i.v. 0.2 mg/Kg, 25 min) | Changes(%) of basal values, coronery sinus out flow (mongrel adult dogs [3]; i.v. 0.2 mg/Kg, 30 min) | Changes(%) of basal values, coronery sinus out flow (mongrel adult dogs [3]; i.v. 0.6 mg/Kg, 10 min) | Changes(%) of basal values, coronery sinus out flow (mongrel adult dogs [3]; i.v. 0.6 mg/Kg, 15 min) | Changes(%) of basal values, coronery sinus out flow (mongrel adult dogs [3]; i.v. 0.6 mg/Kg, 20 min) | Changes(%) of basal values, coronery sinus out flow (mongrel adult dogs [3]; i.v. 0.6 mg/Kg, 25 min) | Changes(%) of basal values, coronery sinus out flow (mongrel adult dogs [3]; i.v. 0.6 mg/Kg, 30 min) | Changes(%) of basal values, coronery sinus out flow (mongrel adult dogs [3]; i.v. 2.0 mg/Kg, 30 min)
+2.5%: Changes(%) of basal values, coronery sinus out flow (mongrel adult dogs [3]; i.v. 0.6 mg/Kg, 1 min) | Changes(%) of basal values, coronery sinus out flow (mongrel adult dogs [3]; i.v. 0.6 mg/Kg, 5 min)
+4.0%: Changes(%) of basal values, coronery sinus out flow (mongrel adult dogs [3]; i.v. 0.2 mg/Kg, imm.) | Changes(%) of basal values, coronery sinus out flow (mongrel adult dogs [3]; i.v. 2.0 mg/Kg, 20 min)
+1.0%: Changes(%) of basal values, coronery sinus out flow (mongrel adult dogs [3]; i.v. 0.2 mg/Kg, 1 min) | Changes(%) of basal values, coronery sinus out flow (mongrel adult dogs [3]; i.v. 2.0 mg/Kg, 25 min) | Changes(%) of basal values, coronary sinus oxygen tension (mongrel adult dogs [4])
+23.0%: Changes(%) of basal values, aortic blood flow (mongrel adult dogs [2]; i.v. 2.0 mg/Kg, 10 min)
-13.0%: Changes(%) of basal values, coronery sinus out flow (mongrel adult dogs [3]; i.v. 2.0 mg/Kg, imm.)
-78.0%: Changes(%) of basal values, aortic blood flow (mongrel adult dogs [2]; i.v. 2.0 mg/Kg, imm.)
+11.0%: Changes(%) of basal values, aortic blood flow (mongrel adult dogs [2]; i.v. 2.0 mg/Kg, 5 min)
+10.0%: Changes(%) of basal values, aortic blood flow (mongrel adult dogs [2]; i.v. 2.0 mg/Kg, 15 min)
+1.5%: Changes(%) of basal values, aortic blood flow (mongrel adult dogs [2]; i.v. 0.6 mg/Kg, imm.)
-2.0%: Changes(%) of basal values, arterial mean blood pressure (mongrel adult dogs [1]; i.v. 0.2 mg/Kg, 5 min) | Changes(%) of basal values, arterial mean blood pressure (mongrel adult dogs [1]; i.v. 0.6 mg/Kg, 1 min) | Changes(%) of basal values, arterial mean blood pressure (mongrel adult dogs [1]; i.v. 2.0 mg/Kg, 5 min) | Changes(%) of basal values, arterial mean blood pressure (mongrel adult dogs [1]; i.v. 2.0 mg/Kg, 25 min) | Changes(%) of basal values, arterial mean blood pressure (mongrel adult dogs [1]; i.v. 2.0 mg/Kg, 30 min)
+5.0%: Changes(%) of basal values, aortic blood flow (mongrel adult dogs [2]; i.v. 2.0 mg/Kg, 20 min) | Changes(%) of basal values, aortic blood flow (mongrel adult dogs [2]; i.v. 2.0 mg/Kg, 30 min)
+9.0%: Changes(%) of basal values, coronery sinus out flow (mongrel adult dogs [3]; i.v. 2.0 mg/Kg, 10 min)
